{"source": "patent US20110152249A1", "about": "“EVALUATING CENTRAL NERVOUS SYSTEM” (THE GENERAL HOSPITAL CORPORATION, priority 2004, published 2011)", "key": {"patient": {"tested_on": "patient", "experiment": "Medication history of a patient with facial burning and numbness following trigeminal rhizotomy", "format": "in vivo, human", "details": "single patient; facial burning and numbness after rhizotomy for trigeminal neuralgia", "description": "In a similar manner as that described above for a healthy volunteer, we examined fMRI activation in a patient who had facial burning and numbness following trigeminal rhizotomy one year previously for trigeminal neuralgia. Medications, including gabapentin and tegretol, had been unhelpful. Careful questioning and psychophysical evaluation was performed. […] They also had decreased warm and cold sensation on the affected side vs. the intact side. They underwent functional neuroimaging for thermal stimuli applied to the V2 and V3 distributions on the right and left. FIGS. 3A-3E show the results of cortical activation from this patient. There was a decrease in activation to a 45° C. stimulus applied to the affected area and an apparent increase in signal for the same stimulus applied to the ipsilateral V3 distribution."}, "opioid naïve individuals": {"tested_on": "opioid naïve individuals", "experiment": "fMRI response to morphine in opioid naïve individuals", "format": "in vivo, human", "from_the_text": "Some of these have an oppositely valenced signal to that observed for aversive painful stimuli. […] This observation is in counter distinction to that observed for cortical activation by painful stimuli (see above)."}, "healthy human volunteers": {"tested_on": "healthy human volunteers", "from_the_text": "We also investigated the effects of the general anesthetic agent propofol on cerebral structures involved in the processing of vibrotactile information. Using positron emission tomography (PET) and the H(2)(15)O bolus technique, we measured regional distribution of cerebral blood flow (CBF) in eight healthy human volunteers. They were scanned under five different levels of propofol anesthesia. Using a computer-controlled infusion, the following plasma levels of propofol were targeted: Level W (Waking, 0 microg/ml), Level 1 (0.5 microg/ml), Level 2 (1.5 microg/ml), Level 3 (3.5 microg/ml), and Level R (Recovery). At each level of anesthesia, two 3-min scans were acquired with vibrotactile stimulation of the right forearm either on or off. The level of consciousness was evaluated before each scan by the response of the subject to a verbal command."}}, "note": "Like-named read-outs stand apart in the source and are kept apart here.", "data": [{"smiles": "NCC1(CC(=O)O)CCCCC1", "note": "[gabapentin]", "values": [{"measurement": "clinical benefit of medication", "setting": "patient", "value": "unhelpful"}]}, {"smiles": "CN1CC[C@]23c4c5ccc(O)c4O[C@H]2[C@@H](O)C=C[C@H]3[C@H]1C5", "note": "[morphine]", "values": [{"measurement": "fMRI activation in subcortical structures", "setting": "opioid naïve individuals", "value": "activation in deep subcortical structures including those involved in reward"}, {"measurement": "fMRI signal in the SI cortex", "setting": "opioid naïve individuals; low-dose morphine", "value": "decrease in signal in SI"}]}, {"smiles": "CC(C)c1cccc(C(C)C)c1O", "note": "[propofol]", "values": [{"measurement": "level of consciousness", "setting": "healthy human volunteers; Level 1, target plasma 0.5 microg/ml", "value": "slightly drowsy"}, {"measurement": "vibration-induced increases in rCBF in the primary and secondary somatosensory cortex", "setting": "healthy human volunteers; Level 1 through 3 (0.5-3.5 microg/ml target plasma), vibrotactile stimulation of right forearm", "value": "suppressed vibration-induced increases in rCBF"}, {"measurement": "level of consciousness", "setting": "healthy human volunteers; Level 2, target plasma 1.5 microg/ml", "value": "slurred speech and slow response"}, {"measurement": "level of consciousness", "setting": "healthy human volunteers; Level 3, target plasma 3.5 microg/ml", "value": "not responding at all"}, {"measurement": "thalamic rCBF response to vibrotactile stimulation", "setting": "healthy human volunteers; Level 3 = 3.5 microg/ml target plasma, volunteers lost consciousness", "value": "abolished only at Level 3"}, {"measurement": "rCBF in the thalamus and in visual, parietal, and prefrontal cortical regions", "setting": "healthy human volunteers; during anesthesia, target plasma levels 0.5, 1.5, 3.5 microg/ml", "value": "reduced in a dose-dependent manner rCBF"}]}, {"smiles": "NC(=O)N1c2ccccc2C=Cc2ccccc21", "note": "[tegretol]", "values": [{"measurement": "clinical benefit of medication", "setting": "patient", "value": "unhelpful"}]}]}
